Paper PMC8745178, “Methyl 2-Halo-4-Substituted-5-Sulfamoyl-Benzoates as High Affinity and Selective Inhibitors of Carbonic Anhydrase IX” (International Journal of Molecular Sciences, 2021)

Legend:
CAII = CAII (Homo sapiens, UniProt P00918); assay: fluorescent thermal shift assay (FTSA), CAII; assay type: binding; details: 37 °C; for ΔGintr CAII: converted from Kd_intr, independent of pH; for ΔGobs CAII: converted from Kd_obs, pH 7.0, FTSA
CAIV = CAIV (Homo sapiens, UniProt P22748); assay: fluorescent thermal shift assay (FTSA), CAIV; assay type: binding; details: 37 °C; for ΔGintr CAIV: converted from Kd_intr, independent of pH; for ΔGobs CAIV: converted from Kd_obs, pH 7.0, FTSA
Sequence of CAIV (P22748 19-312): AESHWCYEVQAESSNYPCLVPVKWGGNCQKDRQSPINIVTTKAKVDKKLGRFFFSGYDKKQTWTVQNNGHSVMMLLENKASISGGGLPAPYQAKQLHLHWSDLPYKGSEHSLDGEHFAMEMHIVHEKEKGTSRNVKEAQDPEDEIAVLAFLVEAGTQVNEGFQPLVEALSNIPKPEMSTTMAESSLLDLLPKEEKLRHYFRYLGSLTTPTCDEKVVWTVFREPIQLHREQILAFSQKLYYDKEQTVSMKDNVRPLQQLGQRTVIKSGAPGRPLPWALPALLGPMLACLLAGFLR

CAIX = CAIX (Homo sapiens, UniProt Q16790); assay: fluorescent thermal shift assay (FTSA), CAIX; assay type: binding; details: for ΔGobs CAIX: pH 7
CAVI = CAVI (Homo sapiens, UniProt P23280); assay: fluorescent thermal shift assay (FTSA), CAVI; assay type: binding; details: 37 °C; for ΔGintr CAVI: converted from Kd_intr, independent of pH; for ΔGobs CAVI: converted from Kd_obs, pH 7.0, FTSA
Sequence of CAVI (P23280 18-308): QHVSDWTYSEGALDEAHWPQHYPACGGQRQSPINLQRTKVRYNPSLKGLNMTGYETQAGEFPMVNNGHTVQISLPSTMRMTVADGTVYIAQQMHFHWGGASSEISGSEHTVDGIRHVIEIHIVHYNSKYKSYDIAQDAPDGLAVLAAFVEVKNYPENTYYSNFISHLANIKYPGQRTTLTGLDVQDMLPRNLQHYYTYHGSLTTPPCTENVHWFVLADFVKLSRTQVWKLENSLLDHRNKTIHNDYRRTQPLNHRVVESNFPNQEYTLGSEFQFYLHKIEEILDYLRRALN

CAXII = CAXII (Homo sapiens, UniProt O43570); assay: fluorescent thermal shift assay (FTSA), CAXII; assay type: binding; details: 37 °C; for ΔGintr CAXII: converted from Kd_intr, independent of pH; for ΔGobs CAXII: converted from Kd_obs, pH 7.0, FTSA
Sequence of CAXII (O43570 25-354): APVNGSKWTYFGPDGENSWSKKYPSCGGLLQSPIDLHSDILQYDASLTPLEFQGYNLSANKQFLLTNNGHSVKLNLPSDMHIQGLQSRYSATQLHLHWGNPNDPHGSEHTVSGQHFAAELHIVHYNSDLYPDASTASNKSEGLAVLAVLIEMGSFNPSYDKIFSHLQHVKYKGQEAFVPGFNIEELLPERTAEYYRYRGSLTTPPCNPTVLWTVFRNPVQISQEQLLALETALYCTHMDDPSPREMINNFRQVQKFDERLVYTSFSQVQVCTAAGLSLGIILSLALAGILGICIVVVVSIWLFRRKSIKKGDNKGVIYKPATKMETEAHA

CAXIV = CAXIV (Homo sapiens, UniProt Q9ULX7); assay: fluorescent thermal shift assay (FTSA), CAXIV; assay type: binding; details: 37 °C; for ΔGintr CAXIV: converted from Kd_intr, independent of pH; for ΔGobs CAXIV: converted from Kd_obs, pH 7.0, FTSA
Sequence of CAXIV (Q9ULX7 16-337): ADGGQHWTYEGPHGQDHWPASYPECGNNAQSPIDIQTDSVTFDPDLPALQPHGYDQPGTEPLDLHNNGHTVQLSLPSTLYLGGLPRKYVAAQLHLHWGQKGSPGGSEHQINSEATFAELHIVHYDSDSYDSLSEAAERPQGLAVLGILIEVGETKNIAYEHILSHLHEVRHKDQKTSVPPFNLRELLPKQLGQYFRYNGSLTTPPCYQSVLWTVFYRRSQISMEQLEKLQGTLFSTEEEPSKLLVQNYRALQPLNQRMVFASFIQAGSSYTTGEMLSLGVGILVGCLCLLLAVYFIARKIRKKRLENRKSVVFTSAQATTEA

[1] = determination of pKa of the sulfonamide group by UV-VIS spectra at various pH; assay type: physicochemical; details: for f RSO2NH-, fraction of deprotonated sulfonamide: at pH 7.0, calculated from pKa
CAVII = CAVII (Homo sapiens, UniProt P43166); assay: fluorescent thermal shift assay (FTSA), CAVII; assay type: binding; details: 37 °C; for ΔGintr CAVII: converted from Kd_intr, independent of pH; for ΔGobs CAVII: converted from Kd_obs, pH 7.0, FTSA
Sequence of CAVII (P43166 whole entry): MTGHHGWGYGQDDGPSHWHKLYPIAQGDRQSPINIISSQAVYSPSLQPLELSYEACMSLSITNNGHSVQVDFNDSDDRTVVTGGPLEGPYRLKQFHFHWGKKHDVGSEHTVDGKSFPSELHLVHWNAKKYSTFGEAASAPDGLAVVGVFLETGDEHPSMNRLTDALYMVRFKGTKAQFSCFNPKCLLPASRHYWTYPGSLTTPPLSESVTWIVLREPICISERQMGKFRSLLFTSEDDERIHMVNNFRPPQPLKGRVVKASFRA

CAVB = CAVB (Homo sapiens, UniProt Q9Y2D0); assay: fluorescent thermal shift assay (FTSA), CAVB; assay type: binding; details: 37 °C; for ΔGintr CAVB: converted from Kd_intr, independent of pH; for ΔGobs CAVB: converted from Kd_obs, pH 7.0, FTSA
Sequence of CAVB (Q9Y2D0 34-317): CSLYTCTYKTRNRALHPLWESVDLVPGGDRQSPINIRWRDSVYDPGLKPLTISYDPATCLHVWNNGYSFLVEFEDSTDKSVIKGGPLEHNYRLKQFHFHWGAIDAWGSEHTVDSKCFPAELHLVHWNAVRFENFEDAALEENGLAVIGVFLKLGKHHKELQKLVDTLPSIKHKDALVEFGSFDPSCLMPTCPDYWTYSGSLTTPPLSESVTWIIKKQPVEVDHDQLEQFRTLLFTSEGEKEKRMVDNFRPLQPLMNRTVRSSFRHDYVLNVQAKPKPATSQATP

CAXIII = CAXIII (Homo sapiens, UniProt Q8N1Q1); assay: fluorescent thermal shift assay (FTSA), CAXIII; assay type: binding; details: 37 °C; for ΔGobs CAXIII: converted from Kd_obs, pH 7.0, FTSA; for ΔGintr CAXIII: converted from Kd_intr, independent of pH
Sequence of CAXIII (Q8N1Q1 whole entry): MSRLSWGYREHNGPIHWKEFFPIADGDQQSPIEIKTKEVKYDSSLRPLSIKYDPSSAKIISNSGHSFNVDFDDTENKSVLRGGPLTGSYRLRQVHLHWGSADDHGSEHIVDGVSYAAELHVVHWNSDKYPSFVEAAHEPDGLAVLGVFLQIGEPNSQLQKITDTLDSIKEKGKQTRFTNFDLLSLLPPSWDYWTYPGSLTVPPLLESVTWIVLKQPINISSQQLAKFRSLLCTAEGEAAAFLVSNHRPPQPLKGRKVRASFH

CAVA = CAVA (Homo sapiens, UniProt P35218); assay: fluorescent thermal shift assay (FTSA), CAVA; assay type: binding; details: 37 °C; for ΔGintr CAVA: converted from Kd_intr, independent of pH; for ΔGobs CAVA: converted from Kd_obs, pH 7.0, FTSA
Sequence of CAVA (P35218 39-305): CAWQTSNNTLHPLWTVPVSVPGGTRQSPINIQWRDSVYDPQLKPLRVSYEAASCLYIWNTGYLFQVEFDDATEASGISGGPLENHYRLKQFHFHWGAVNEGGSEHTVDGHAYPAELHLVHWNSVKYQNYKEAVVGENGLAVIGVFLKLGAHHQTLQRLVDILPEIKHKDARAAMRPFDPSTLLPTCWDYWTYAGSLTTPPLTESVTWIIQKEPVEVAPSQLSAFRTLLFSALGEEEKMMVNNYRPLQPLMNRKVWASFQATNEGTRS

CAI = CAI (Homo sapiens, UniProt P00915); assay: fluorescent thermal shift assay (FTSA), CAI; assay type: binding; details: 37 °C; for ΔGintr CAI: converted from Kd_intr, independent of pH; for ΔGobs CAI: converted from Kd_obs, pH 7.0, FTSA
Sequence of CAI (P00915 whole entry): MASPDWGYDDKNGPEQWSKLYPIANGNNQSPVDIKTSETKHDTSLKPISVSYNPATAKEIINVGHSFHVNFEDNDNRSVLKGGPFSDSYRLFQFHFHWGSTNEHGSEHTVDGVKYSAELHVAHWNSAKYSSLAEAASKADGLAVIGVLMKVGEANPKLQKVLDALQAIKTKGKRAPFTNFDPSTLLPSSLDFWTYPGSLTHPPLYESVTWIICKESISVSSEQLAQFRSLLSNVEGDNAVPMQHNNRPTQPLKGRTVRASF

[2] = solubility observed visually and in absorption spectra; assay type: physicochemical; set-up: key: low solubility, LS
CAIII = CAIII (Homo sapiens, UniProt P07451); assay: fluorescent thermal shift assay (FTSA), CAIII; assay type: binding; details: 37 °C; for ΔGintr CAIII: converted from Kd_intr, independent of pH; for ΔGobs CAIII: converted from Kd_obs, pH 7.0, FTSA
Sequence of CAIII (P07451 whole entry): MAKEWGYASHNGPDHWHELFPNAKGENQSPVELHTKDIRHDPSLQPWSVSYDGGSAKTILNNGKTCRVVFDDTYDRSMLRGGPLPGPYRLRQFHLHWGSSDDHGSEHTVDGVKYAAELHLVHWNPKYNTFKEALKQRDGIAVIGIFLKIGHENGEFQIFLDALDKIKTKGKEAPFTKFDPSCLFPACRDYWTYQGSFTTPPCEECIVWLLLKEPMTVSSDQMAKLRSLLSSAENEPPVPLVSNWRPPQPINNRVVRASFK

| SMILES | ΔGintr CAII (CAII) [kcal/mol] | ΔGobs CAII (CAII) [kcal/mol] | ΔGintr CAIV (CAIV) [kcal/mol] | ΔGobs CAIV (CAIV) [kcal/mol] | ΔGintr CAIX (CAIX) | ΔGobs CAIX (CAIX) [kcal/mol] | ΔGintr CAVI (CAVI) [kcal/mol] | ΔGobs CAVI (CAVI) [kcal/mol] | ΔGintr CAXII (CAXII) [kcal/mol] | ΔGobs CAXII (CAXII) [kcal/mol] | ΔGintr CAXIV (CAXIV) [kcal/mol] | ΔGobs CAXIV (CAXIV) [kcal/mol] | f RSO2NH-, fraction of deprotonated sulfonamide [1] [%] | ΔGintr CAVII (CAVII) [kcal/mol] | ΔGobs CAVII (CAVII) [kcal/mol] | ΔGintr CAVB (CAVB) [kcal/mol] | ΔGobs CAVB (CAVB) [kcal/mol] | ΔGobs CAXIII (CAXIII) [kcal/mol] | ΔGintr CAI (CAI) [kcal/mol] | ΔGobs CAI (CAI) [kcal/mol] | other results |
| --- | --- | --- | --- | --- | --- | --- | --- | --- | --- | --- | --- | --- | --- | --- | --- | --- | --- | --- | --- | --- | --- |
| COC(=O)c1cc(S(N)(=O)=O)c(Cl)cc1Sc1ccccc1 [Compound 5a, Methyl 4-chloro-2-(phenylsulfanyl)-5-sulfamoylbenzoate] | -14.5 | -10.6 | -15.3 | -11.1 | -16.4 kcal/mol | -12.2 | -14.4 | -9.51 | -15.7 | -11.7 | -14.9 | -10.9 | 0.4 | -14.4 | -10.3 | -13.2 | -9.37 | -10.9 | -11.2 | -7.77 | ΔGintr CAVA (CAVA): ≥ -8.91 kcal/mol; ΔGobs CAVA (CAVA): ≥ -5.26 kcal/mol; solubility [2]: LS |
| COC(=O)c1cc(S(N)(=O)=O)c(S(=O)(=O)C2CCCCC2)cc1Br [Compound 8b, Methyl 2-bromo-4-cyclohexylsulfonyl-5-sulfamoylbenzoate] | ≥ -9.87 | ≥ -5.26 | -11 | -6.17 | -51.2 | -7.34 | ≥ -10.9 | ≥ -5.26 | ≥ -9.94 | ≥ -5.26 | ≥ -9.94 | ≥ -5.26 | 0.1 | ≥ -9.94 | ≥ -5.26 | ≥ -9.8 | ≥ -5.26 | -5.88 | ≥ -9.42 | ≥ -5.26 | pKa ([1]; calculated from spectra at various pH, 37 °C): 9.9; ΔGintr CAXIII (CAXIII): -10.1 kcal/mol; ΔGintr CAIII (CAIII): ≥ -10.3 kcal/mol; ΔGobs CAIII (CAIII): ≥ -5.26 kcal/mol; ΔGintr CAVA (CAVA): ≥ -9.61 kcal/mol; ΔGobs CAVA (CAVA): ≥ -5.26 kcal/mol |
| COC(=O)c1cc(S(N)(=O)=O)c(Cl)cc1SCc1ccccc1 [Compound 5c, Methyl 2-benzylsulfanyl-4-chloro-5-sulfamoylbenzoate] | -14.5 | -10.6 | – | – | -15.3 kcal/mol | -11.1 | – | -9.3 | -13.1 | -9.08 | -14.4 | -10.4 | 0.4 | -13.8 | -9.8 | -12.8 | -8.99 | -9.94 | -11.5 | -8.08 | ΔGintr CAXIII (CAXIII): -13.4 kcal/mol; ΔGintr CAIII (CAIII): ≥ -9.54 kcal/mol; ΔGobs CAIII (CAIII): ≥ -5.26 kcal/mol; solubility [2]: LS |
| COC(=O)c1cc(S(N)(=O)=O)c(Cl)cc1Sc1cccc2ccccc12 [Compound 5f, Methyl 4-chloro-2-(1-naphthylsulfanyl)-5-sulfamoyl-benzoate] | -13.8 | -9.87 | -10.1 | -5.93 | -15.1 kcal/mol | -10.9 | -11.8 | -6.88 | – | – | -9.94 | -5.95 | 0.4 | – | -8.46 | -12.8 | -8.91 | -10.3 | -9.94 | -6.5 | ΔGintr CAXIII (CAXIII): -13.7 kcal/mol; ΔGintr CAIII (CAIII): ≥ -9.54 kcal/mol; ΔGobs CAIII (CAIII): ≥ -5.26 kcal/mol; ΔGintr CAVA (CAVA): -9.37 kcal/mol; ΔGobs CAVA (CAVA): -5.71 kcal/mol; solubility [2]: LS |
| COC(=O)c1cc(S(N)(=O)=O)c(S(=O)(=O)Cc2ccccc2)cc1Cl [Compound 7c, Methyl 4-benzylsulfonyl-2-chloro-5-sulfamoylbenzoate] | ≥ -9.78 | ≥ -5.28 | -12.2 | -7.43 | -13.4 kcal/mol | -8.65 | -10.9 | -5.5 | -11.9 | -7.34 | -11.9 | -7.34 | 0.2 | ≥ -9.8 | ≥ -5.26 | ≥ -9.66 | ≥ -5.26 | -5.47 | ≥ -9.27 | ≥ -5.26 | ΔGintr CAXIII (CAXIII): -9.51 kcal/mol; ΔGintr CAIII (CAIII): ≥ -10.1 kcal/mol; ΔGobs CAIII (CAIII): ≥ -5.26 kcal/mol; ΔGintr CAVA (CAVA): ≥ -9.46 kcal/mol; ΔGobs CAVA (CAVA): ≥ -5.26 kcal/mol; solubility [2]: LS |
| COC(=O)c1cc(S(N)(=O)=O)c(Br)cc1Sc1ccccc1 [Compound 6a, Methyl 4-bromo-2-(phenylsulfanyl)-5-sulfamoylbenzoate] | -14 | -10.1 | -14.7 | -10.5 | -15.5 kcal/mol | -11.4 | -13.9 | -9.06 | -14.9 | -10.9 | -15.2 | -11.2 | 0.4 | -13.5 | -9.46 | -14.5 | -10.7 | -11.1 | -11.4 | -7.96 | ΔGintr CAXIII (CAXIII): -14.5 kcal/mol; ΔGintr CAIII (CAIII): ≥ -9.54 kcal/mol; ΔGobs CAIII (CAIII): ≥ -5.26 kcal/mol; ΔGintr CAVA (CAVA): -9.44 kcal/mol; ΔGobs CAVA (CAVA): -5.76 kcal/mol; solubility [2]: LS |
